Tests used:
Type in all cases: biochemical
Conditions in all cases: 100 μM inhibitor
Sirt3 = target: T1, Sirt3 (Homo sapiens, UniProt Q9NTG7); assay: Sirt3 inhibition assay
T1 sequence (Q9NTG7 1-399): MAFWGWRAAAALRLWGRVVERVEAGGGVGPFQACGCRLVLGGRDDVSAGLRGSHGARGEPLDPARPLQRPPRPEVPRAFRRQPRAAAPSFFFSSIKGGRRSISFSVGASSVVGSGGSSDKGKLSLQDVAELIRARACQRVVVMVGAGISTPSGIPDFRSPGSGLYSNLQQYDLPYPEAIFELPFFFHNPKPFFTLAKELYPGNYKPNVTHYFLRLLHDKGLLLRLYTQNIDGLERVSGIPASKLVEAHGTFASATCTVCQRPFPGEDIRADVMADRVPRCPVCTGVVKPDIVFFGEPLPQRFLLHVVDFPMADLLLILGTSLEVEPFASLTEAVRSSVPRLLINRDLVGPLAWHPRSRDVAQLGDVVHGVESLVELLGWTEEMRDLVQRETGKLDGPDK

Sirt1 = target: T2, Sirt1 (Homo sapiens, UniProt Q96EB6); assay: Sirt1 inhibition assay
T2 sequence (Q96EB6 1-747): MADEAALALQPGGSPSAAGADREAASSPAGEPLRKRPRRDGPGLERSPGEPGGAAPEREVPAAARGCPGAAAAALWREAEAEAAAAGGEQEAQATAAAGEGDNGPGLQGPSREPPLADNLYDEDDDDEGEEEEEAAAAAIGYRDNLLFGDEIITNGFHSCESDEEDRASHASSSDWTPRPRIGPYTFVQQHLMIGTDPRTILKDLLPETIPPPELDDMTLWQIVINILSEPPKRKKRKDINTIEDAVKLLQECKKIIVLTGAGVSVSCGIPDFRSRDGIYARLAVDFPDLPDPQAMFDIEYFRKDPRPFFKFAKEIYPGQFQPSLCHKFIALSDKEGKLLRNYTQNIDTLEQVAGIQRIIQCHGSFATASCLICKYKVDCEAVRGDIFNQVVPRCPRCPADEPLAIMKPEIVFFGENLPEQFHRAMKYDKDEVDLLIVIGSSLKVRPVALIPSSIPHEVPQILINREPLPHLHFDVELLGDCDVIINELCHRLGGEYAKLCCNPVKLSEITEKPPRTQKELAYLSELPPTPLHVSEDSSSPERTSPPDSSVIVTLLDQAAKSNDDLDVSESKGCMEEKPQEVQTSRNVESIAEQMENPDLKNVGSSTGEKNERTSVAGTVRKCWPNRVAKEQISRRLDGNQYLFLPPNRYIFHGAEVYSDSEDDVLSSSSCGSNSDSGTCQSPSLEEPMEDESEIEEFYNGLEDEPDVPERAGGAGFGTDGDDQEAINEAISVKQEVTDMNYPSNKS

Sirt2 = target: T3, Sirt2 (Homo sapiens, UniProt Q8IXJ6); assay: Sirt2 inhibition assay
T3 sequence (Q8IXJ6 1-389): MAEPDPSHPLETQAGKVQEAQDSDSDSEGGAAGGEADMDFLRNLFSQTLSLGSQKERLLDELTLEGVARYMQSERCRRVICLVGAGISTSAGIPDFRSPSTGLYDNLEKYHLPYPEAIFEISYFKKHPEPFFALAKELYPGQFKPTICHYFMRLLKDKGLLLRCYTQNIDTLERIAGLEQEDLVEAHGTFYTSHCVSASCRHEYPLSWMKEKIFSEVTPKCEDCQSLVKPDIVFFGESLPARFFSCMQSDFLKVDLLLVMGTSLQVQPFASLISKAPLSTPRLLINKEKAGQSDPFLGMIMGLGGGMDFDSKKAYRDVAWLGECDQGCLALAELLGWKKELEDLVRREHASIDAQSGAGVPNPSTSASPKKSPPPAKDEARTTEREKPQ

inhibition of Sirt3 at 100 μM (Sirt3): does not inhibit | inhibition of Sirt1 at 100 μM (Sirt1): does not inhibit | inhibition of Sirt2 at 100 μM (Sirt2): does not inhibit
SMILES: C[C@H](NC(=O)[C@H](CCCCN)NC(=O)CNC(=O)CNC(=O)[C@@H](NC(=O)[C@H](CO)NC(=O)[C@H](CCCCNC(=S)CCC(=O)O)NC(=O)[C@H](CCCNC(=N)N)NC(=O)[C@H](C)NC(=O)[C@@H](NC(=O)[C@H](CCC(N)=O)NC(=O)[C@@H](N)CCCCN)[C@@H](C)O)[C@@H](C)O)C(=O)O [H3K9TSu, KQTAR(TSuK)STGGKA]

Reference: paper PMC3271735 (Journal of the American Chemical Society, 2012)
